Source: the supplement of paper PMC10307832

What was measured:
Experiment in all cases: relative viability (nuclei count vs DMSO), 5 days (fraction); higher = more cells survive
RAF265 + Palbociclib = compound: Cn1c(Nc2ccc(C(F)(F)F)cc2)nc2cc(Oc3ccnc(-c4ncc(C(F)(F)F)[nH]4)c3)ccc21 [RAF265] + CC(=O)c1c(C)c2cnc(Nc3ccc(N4CCNCC4)cn3)nc2n(C2CCCC2)c1=O [Palbociclib] (partner 0.5 µM)
Method in brief: (§1)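 Lung cancer cell lines in 1536-well plates got either a single drug or a fixed anchor-drug dose together with five library-drug doses (not always all listed) in √10 steps, by pin tool, on the day after seeding. Nuclei were counted after 5 days, and relative viability is the treated-to-vehicle ratio of nuclei counts. Values are medians of duplicate plates.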

IPA-3 + AZD7762 = compound: C1=CC=C2C(=C1)C=CC(=C2SSC3=C(C=CC4=CC=CC=C43)O)O [IPA-3] + NC(=O)Nc1cc(-c2cccc(F)c2)sc1C(=O)N[C@H]1CCCNC1 [AZD7762] (partner 0.2 µM)
Method in brief: as §1

[1] = compound: Cc1ccc(-n2nc(C(C)(C)C)cc2NC(=O)Nc2ccc(OCCN3CCOCC3)c3ccccc23)cc1 [Doramapimod] + CC(=O)c1c(C)c2cnc(Nc3ccc(N4CCNCC4)cn3)nc2n(C2CCCC2)c1=O [Palbociclib] (partner 0.5 µM)
Method in brief: as §1

Doramapimod + Linsitinib = compound: Cc1ccc(-n2nc(C(C)(C)C)cc2NC(=O)Nc2ccc(OCCN3CCOCC3)c3ccccc23)cc1 [Doramapimod] + C[C@]1(O)C[C@@H](c2nc(-c3ccc4ccc(-c5ccccc5)nc4c3)c3c(N)nccn32)C1 [Linsitinib] (partner 1 µM)
Method in brief: as §1

Cell Line | relative viability (RAF265 + Palbociclib; first compound 0.01 µM) | relative viability (RAF265 + Palbociclib; first compound 0.03162 µM) | relative viability (RAF265 + Palbociclib; first compound 0.1 µM) | relative viability (RAF265 + Palbociclib; first compound 0.3162 µM) | relative viability (RAF265 + Palbociclib; first compound 1 µM) | relative viability (IPA-3 + AZD7762; first compound 0.2 µM) | relative viability (IPA-3 + AZD7762; first compound 0.6325 µM) | relative viability (IPA-3 + AZD7762; first compound 2 µM) | relative viability (IPA-3 + AZD7762; first compound 6.325 µM) | relative viability (IPA-3 + AZD7762; first compound 20 µM) | relative viability ([1]; first compound 0.02 µM) | relative viability ([1]; first compound 0.06325 µM) | relative viability ([1]; first compound 0.2 µM) | relative viability ([1]; first compound 0.6325 µM) | relative viability ([1]; first compound 2 µM) | relative viability (Doramapimod + Linsitinib; first compound 0.02 µM) | relative viability (Doramapimod + Linsitinib; first compound 0.06325 µM) | relative viability (Doramapimod + Linsitinib; first compound 0.2 µM) | relative viability (Doramapimod + Linsitinib; first compound 0.6325 µM) | relative viability (Doramapimod + Linsitinib; first compound 2 µM)
LC-2-ad | 0.488 | 0.499 | 0.55 | 0.58 | 0.29 | 0.896 | 0.873 | 0.899 | 0.897 | 0.96 | 0.521 | 0.467 | 0.502 | 0.529 | 0.529 | 0.856 | 0.802 | 0.95 | 0.88 | 0.684
LCLC-97TM1 | 0.233 | 0.245 | 0.158 | 0.208 | 0.0796 | 0.356 | 0.205 | 0.307 | 0.251 | 0.247 | 0.233 | 0.211 | 0.257 | 0.219 | 0.171 | 0.181 | 0.169 | 0.161 | 0.191 | 0.17
LCLC-103H | 0.463 | 0.47 | 0.496 | 0.404 | 0.322 | 0.862 | 0.814 | 0.744 | 0.788 | 0.872 | 0.43 | 0.396 | 0.432 | 0.42 | 0.439 | 0.99 | 1.06 | 1.09 | 1.09 | 1.03
LK-2 | 0.558 | 0.679 | 0.722 | 0.804 | 0.364 | 0.456 | 0.394 | 0.355 | 0.672 | 0.397 | 0.515 | 0.576 | 0.54 | 0.518 | 0.413 | 0.284 | 0.388 | 0.348 | 0.42 | 0.22
LOU-NH91 | 0.565 | 0.524 | 0.55 | 0.537 | 0.436 | 0.8 | 0.747 | 0.799 | 0.76 | 0.788 | 0.531 | 0.564 | 0.535 | 0.528 | 0.509 | 0.967 | 0.91 | 0.972 | 1.06 | 0.686
LU99A | 0.366 | 0.35 | 0.325 | 0.217 | 0.144 | 0.403 | 0.318 | 0.28 | 0.365 | 0.309 | 0.38 | 0.365 | 0.379 | 0.426 | 0.313 | 0.504 | 0.535 | 0.47 | 0.503 | 0.457
LXF-289 | 0.622 | 0.615 | 0.625 | 0.498 | 0.313 | 1.22 | 1.01 | 1.17 | 1.25 | 1.22 | 0.6 | 0.586 | 0.615 | 0.567 | 0.63 | 0.961 | 0.92 | 0.896 | 0.933 | 0.939
NCI-H23 | 0.499 | 0.342 | 0.304 | 0.262 | 0.206 | 0.207 | 0.274 | 0.261 | 0.32 | 0.363 | 0.458 | 0.485 | 0.482 | 0.52 | 0.568 | 0.648 | 0.528 | 0.511 | 0.664 | 0.565
